The values that follow come from PubChem BioAssay (NCI).

Common to all, as to assay: inhibition of tumour cell growth, NCI panel, 48 h
In assay [1] the test system is SF-539 CNS.
Assay [2] deals with NCI-H23 lung.
Assay [3] concerns SF-268 CNS.
Assay [4] has as its system UO-31 renal.
Assay [5] concerns HCT-116 colon.
For assay [6], the system named is HCC-2998 colon.
Assay [7] has as its system IGROV1 ovarian.
Assay [8] deals with LOX IMVI melanoma.
Assay [9] has as its system M14 melanoma.
The test system of assay [10] is COLO 205 colon.
The test system of assay [11] is HL-60(TB) leukemia.
Assay [12] relates to 786-0 renal.
The test system of assay [13] is SK-MEL-5 melanoma.
The subject of assay [14] is OVCAR-8 ovarian.
Assay [15] deals with MDA-N.
The subject of assay [16] is SW-620 colon.
The subject of assay [17] is SNB-19 CNS.
The test system of assay [18] is KM12 colon.
The test system of assay [19] is HOP-62 NSCLC.

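Briefly, cells in 96-well plates were exposed to five compound concentrations for 48 h, and endpoints were estimated by linear interpolation. Definition used: TGI = concentration required for complete inhibition of growth.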

As to `CSc1c(C(=O)Nc2ccccc2)c(N)n(N)c(=O)c1C#N`, the TGI in assay [1], in [2], in assay [3], in assay [4], in assay [5] and in assay [6] was more than 100 µM throughout. Also, the TGI in assay [7], in [8], in assay [9], in assay [10], in [11] and in assay [12] was more than 100 µM each time. Further, the TGI in assay [13], in [14], in assay [15], in assay [16], in assay [17] and in assay [18] was more than 100 µM throughout.

`CC(C)(C)C1=C(Br)C(C(C)(C)C)OP1(=O)O` (stereo not given): the TGI in [19], in assay [1], in assay [2], in assay [3], in assay [4] and in assay [5] was more than 100 µM each time. Also, the TGI in assay [6], in [7], in [8], in assay [9], in assay [10] and in [11] was more than 100 µM each time. Further, the TGI in [12], in assay [13], in [14], in assay [15], in assay [17] and in assay [18] was more than 100 µM in each case.

Regarding `CN(/N=C/c1ccc(C(=O)O)cc1)C1=NCCCCN1`, the TGI in assay [19], in [1], in [2], in [3], in [4] and in [5] was more than 100 µM throughout. Further, the TGI in assay [6], in assay [7], in assay [8], in assay [9], in assay [10] and in assay [11] was more than 100 µM throughout. In addition, the TGI in [12], in [13], in [14], in assay [15], in assay [17] and in [18] was more than 100 µM throughout.

Regarding `Cc1ccc(C2(O)CSC(=NC34CC5CC(CC(C5)C3)C4)N2C(P(=O)(O)O)P(=O)(O)O)cc1` (stereo not given), the TGI was more than 100 µM in assay [19]; more than 100 µM in assay [1]; more than 100 µM in assay [2]; more than 100 µM in assay [3]; more than 100 µM in assay [4]; 67.5 µM in assay [5]. In addition, the TGI in assay [6], in assay [7], in [9], in assay [10], in [11] and in [12] was more than 100 µM throughout. Besides, the TGI in assay [14], in assay [15], in assay [16], in assay [17] and in [18] was more than 100 µM throughout.

Take `COC1(OC)N=C(N)C2(C#N)C(c3ccccc3)NC3=C(CCC3)C12C#N` (stereo not given): the TGI in assay [19], in assay [2], in [3], in assay [4], in assay [5] and in [6] was more than 100 µM each time. Besides, the TGI in assay [7], in assay [8], in assay [9], in [10], in [11] and in assay [12] was more than 100 µM throughout. For the same molecule, the TGI in [13], in assay [14], in assay [15], in assay [16], in assay [17] and in assay [18] was more than 100 µM throughout.

On to `Clc1ccc(CCN(CCc2ccc(Cl)c(Cl)c2)CCN2CCCC2)cc1Cl`, for which the TGI is 3.03 µM in [19]; 3.18 µM in [1]; 3.42 µM in [2]; 3.73 µM in assay [3]; 3 µM in [4]; 3.19 µM in [6]. Also, the TGI in [7] is 2.93 µM; in [8] it was 2.95 µM; in assay [9], 3.1 µM; in assay [10] it was 3.48 µM; in assay [11], 3.25 µM; in assay [12], 3.14 µM. Moreover, the TGI in assay [13] was determined as 3.2 µM; in assay [14] it was 3.06 µM; in [15], 3.32 µM; in assay [18], 3.04 µM.

On to `Cc1ccc(-n2[nH]nc(C(N)=O)c2=O)cc1`, for which the TGI in [19], in assay [2], in [3], in [4], in assay [5] and in [6] was more than 100 µM each time. The TGI in assay [7], in [9], in assay [10], in assay [11], in assay [12] and in [13] was more than 100 µM throughout. Besides, the TGI in assay [14], in [15], in [16], in assay [17] and in assay [18] was more than 100 µM in each case.

Regarding `C=CCn1c(N)c(C#N)c(C#N)c1CCC`, the TGI in assay [19], in assay [1], in [2], in assay [3], in assay [4] and in assay [6] was more than 100 µM throughout. Also, the TGI in [7], in assay [8], in assay [9], in [10], in assay [11] and in assay [12] was more than 100 µM each time. In addition, the TGI in assay [13], in [14], in assay [15], in [16], in assay [17] and in assay [18] was more than 100 µM throughout.

As to `S=C(N/N=C/c1ccccn1)N1CCCCC1`, the TGI in assay [1] is 0.749 µM; in [2] it was more than 45.7 µM; in assay [4], 15.2 µM; in assay [5], 10.9 µM; in [6], more than 100 µM; in [8] it was 20.8 µM. In addition, the TGI in assay [9] was 1.36 µM; in assay [10], more than 100 µM; in [11] it was 0.264 µM; in assay [12], 7.08 µM; in [13], 1.13 µM; in [14] it was more than 65.6 µM. For the same molecule, the TGI in [15], in assay [16], in assay [17] and in assay [18] was more than 100 µM throughout.

With `CC[C@@H](C)[C@H](NC(=O)[C@H](Cc1ccccc1)NCC(F)(F)F)C(=O)OC(C)(C)C`, the TGI in assay [19], in assay [2], in [3], in [4], in assay [5] and in [6] was more than 100 µM throughout. Besides, the TGI in assay [7], in assay [8], in assay [9], in [10], in assay [11] and in [12] was more than 100 µM in each case. Further, the TGI in [13], in assay [14], in assay [15], in [16], in assay [17] and in assay [18] was more than 100 µM each time.

Turning to `NC(=Nc1ccccc1Cl)c1ccccc1N`, the TGI in assay [19], in assay [2], in [3], in [4], in assay [5] and in assay [6] was more than 100 µM throughout. Also, the TGI in [7], in assay [8], in [9], in assay [10], in assay [11] and in [12] was more than 100 µM in each case. Also, the TGI in assay [13], in [14], in [15], in assay [16], in assay [17] and in assay [18] was more than 100 µM in each case.

On to `Cc1c(-c2ccccc2)cc(O)c2nc3ccccc3n12`, for which the TGI in assay [19], in assay [1], in assay [2], in [4], in [6] and in assay [7] was more than 100 µM each time. Further, the TGI in [8], in [9], in assay [10], in [11], in assay [12] and in assay [13] was more than 100 µM throughout. The TGI in [14], in assay [15], in assay [16], in assay [17] and in [18] was more than 100 µM throughout.

As for `CC1C2CC(C(S(=O)(=O)O)C2=O)C1(C)C` (stereo not given), the TGI in assay [19], in assay [1], in assay [2], in [3], in assay [4] and in [5] was more than 100 µM in each case. The TGI in assay [6], in assay [7], in assay [9], in assay [10], in assay [11] and in assay [12] was more than 100 µM throughout. Moreover, the TGI in [14], in assay [15], in assay [16], in [17] and in assay [18] was more than 100 µM in each case.

In the case of `O=c1oc2ccccc2c(Nc2ccc3c(c2)Sc2ccccc2O3)c1[N+](=O)[O-]`, the TGI in [19] is more than 100 µM; in [1] it was 85 µM; in assay [2], 86.7 µM; in assay [3], more than 100 µM; in assay [4] it was more than 100 µM; in [5] it was more than 100 µM. For the same molecule, the TGI in assay [6] is 39.9 µM; in assay [7], more than 100 µM; in assay [8], more than 100 µM; in assay [9], more than 100 µM; in assay [10] it was 32.1 µM; in assay [11] it was 49.7 µM. In addition, the TGI in assay [12] was 53.1 µM; in assay [13], 32.4 µM; in assay [14], more than 100 µM; in assay [15], more than 100 µM; in assay [17], more than 100 µM; in assay [18], 94.3 µM.

Turning to `N[C@@H]1CCN(c2c(F)cc3c(=O)c(C(=O)O)cn4c3c2Oc2c-4ccc3c2ccc2ccccc23)C1`, the TGI in assay [19] was more than 100 µM; in assay [1] it was more than 100 µM; in [2], more than 100 µM; in assay [3], more than 100 µM; in [4], more than 100 µM; in assay [6], 3.56 µM. For the same molecule, the TGI in assay [7] is 36.3 µM; in [8] it was more than 100 µM; in assay [9], more than 100 µM; in assay [10] it was more than 100 µM; in assay [11], more than 100 µM; in assay [12], 39.6 µM. Further, the TGI in assay [13] is more than 100 µM; in [14], more than 100 µM; in assay [15], more than 100 µM; in [16], more than 100 µM; in [17], 10.4 µM; in assay [18] it was more than 100 µM.

With `C=C(CCOC)CCC1CCCCC(CN(C)C)C1=O` (stereo not given), the TGI in [19], in assay [2], in assay [3], in [4], in assay [5] and in assay [6] was more than 100 µM each time. The TGI in assay [7], in [8], in assay [9], in [10], in assay [11] and in assay [12] was more than 100 µM throughout. The TGI in [13], in [14], in assay [15], in [16], in assay [17] and in assay [18] was more than 100 µM throughout.
